Data reported in article PMC6696238, “Novel Benzothiazole-Based Ureas as 17β-HSD10 Inhibitors, A Potential Alzheimer’s Disease Treatment” (Molecules, 2019).

Columns and labels:
[1] = target: T1, 17β-HSD10 (Homo sapiens, UniProt Q99714); experiment: recombinant 17β-HSD10 enzyme activity assay (primary NADH screen and dose response); type: biochemical; design: made in house; conditions: relative remaining activity, 25 μM compound, six independent measurements ± SEM; read-out: 17β-HSD10 activity in the presence of compound at 25 μM (Primary Screen)
T1 sequence (Q99714 1-261): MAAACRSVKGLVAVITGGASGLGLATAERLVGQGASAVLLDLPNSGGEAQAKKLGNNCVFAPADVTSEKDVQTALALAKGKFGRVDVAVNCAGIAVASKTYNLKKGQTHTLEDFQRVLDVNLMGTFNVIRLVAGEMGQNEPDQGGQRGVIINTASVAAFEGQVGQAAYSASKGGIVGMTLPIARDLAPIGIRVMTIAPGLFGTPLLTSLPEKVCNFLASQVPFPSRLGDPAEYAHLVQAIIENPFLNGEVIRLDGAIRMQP
Source text: In order to reduce attrition rates and improve assay reproducibility we have developed a high throughput screening (HTS) pipeline (Figure 3 [19]). In brief, compounds are screened in the recombinant 17β-HSD10 enzyme activity assay (Table 5, Figure 4). Our best previously published compounds have set the threshold of 40% remaining 17β-HSD10 activity as a minimum standard and if compounds can better this threshold, they are further screened using our orthogonal counter assays, dose response assays and kinetic assessment (Table 5). Finally, if passing these criteria with favourable characteristics, the compounds progress into cellular evaluation through cytotoxicity testing and measuring 17β-HSD10 activity within cells (Table 6).
Full results for the primary nicotinamide adenine dinucleotide (NADH) assay screens are shown in Figure 4 including our four best previously published compounds for comparison (Figure 1).
Purification of 17β-HSD10 protein was performed as described in our previous work.
Compound screening, dose response and mechanism of inhibition experiments were performed as described in Hroch et al. 2016, with the exceptions being an alteration in assay buffer (10 mM Tris HCl (pH 7.4), 150 mM NaCl, 1 mM DTT, 0.005% Tween20, 0.01% BSA) and a change in temperature to 25 °C, to improve enzyme stability and assay reliability as compound solubility improved, as outlined in our previous work.

remaining activity at 25 µM [1] [%] | melting point | Compound
52.2 ± 3.67 | 262 to 263 °C | COc1ccc2nc(NC(=O)Nc3ccc(O)c(C)c3)sc2c1 [Compound 2, 1-(4-Hydroxy-3-methylphenyl)-3-(6-methoxybenzo[d]thiazol-2-yl)urea]
41 ± 0.45 | 259 to 260 °C | COc1ccc2nc(NC(=O)Nc3ccc(O)c(C(C)(C)C)c3)sc2c1 [Compound 3, 1-(3-(Tert-butyl)-4-hydroxyphenyl)-3-(6-methoxybenzo[d]thiazol-2-yl)urea]
96.5 ± 2.03 | 277 to 279 °C | COc1ccc2nc(NC(=O)Nc3ccc(O)c(C#N)c3)sc2c1 [Compound 4, 1-(3-Cyano-4-hydroxyphenyl)-3-(6-methoxybenzo[d]thiazol-2-yl)urea]
82.5 ± 2.39 | 180 to 181 °C | COc1ccc2nc(NC(=O)Nc3ccc(O)c(N)c3)sc2c1 [Compound 7, 1-(3-Amino-4-hydroxyphenyl)-3-(6-methoxybenzo[d]thiazol-2-yl)urea]
63.3 ± 3.42 | 272 to 273 °C | COc1ccc2nc(NC(=O)Nc3ccc(O)nc3)sc2c1 [Compound 8, 1-(6-Hydroxypyridin-3-yl)-3-(6-methoxybenzo[d]thiazol-2-yl)urea]
105 ± 3.17 | 304 to 306 °C (dec.) | COc1ccc2nc(NC(=O)Nc3ccc(N)cc3)sc2c1 [Compound 9, 1-(4-Aminophenyl)-3-(6-methoxybenzo[d]thiazol-2-yl)urea]
117 ± 3.94 | 310 to 311 °C (dec.) | COc1ccc2nc(NC(=O)Nc3ccc(N)c(Cl)c3)sc2c1 [Compound 10, 1-(4-Amino-3-chlorophenyl)-3-(6-methoxybenzo[d]thiazol-2-yl)urea]
110 ± 3.8 | 229 to 230 °C | COc1ccc2nc(NC(=O)Nc3ccc(CO)c(Cl)c3)sc2c1 [Compound 11, 1-(3-Chloro-4-(hydroxymethyl)phenyl)-3-(6-methoxybenzo[d]thiazol-2-yl)urea]
120 ± 13.5 | 213 to 214.5 °C | Oc1ccc(Nc2nc3ccc(Cl)cc3s2)cc1Cl [Compound 23, 2-Chloro-4-((6-chlorobenzo[d]thiazol-2-yl)amino)phenol]
105 ± 4.99 |  | COc1ccc2nc(NC(=O)c3ccc(O)c(Cl)c3)sc2c1 [Compound 26]
101 ± 4.6 | 249 to 251 °C | COc1ccc2nc(NC(=O)NCc3ccc(O)c(Cl)c3)sc2c1 [Compound 28, 1-(3-Chloro-4-hydroxybenzyl)-3-(6-methoxybenzo[d]thiazol-2-yl)urea]
63.5 ± 2.58 | 141.5 to 142 °C | COc1ccc2nc(NC(=O)NCc3ccc(O)c(O)c3)sc2c1 [Compound 29, 1-(3,4-Dihydroxybenzyl)-3-(6-methoxybenzo[d]thiazol-2-yl)urea]

Compound | remaining activity at 25 µM [1] [%] | melting point
COc1ccc2nc(NC(c3ccc(F)cc3)P(=O)(OC)OC)sc2c1 (stereo not shown) [Compound 34, Dimethyl ((4-fluorophenyl)((6-methoxybenzo[d]thiazol-2-yl)amino)methyl) phosphonate, reference compound] | 95.4 ± 1.16 | 
COc1ccc2nc(NC(c3ccc(O)cc3)P(=O)(OC)OC)sc2c1 (stereo not shown) [Compound 35, Dimethyl ((4-hydroxyphenyl)((6-methoxybenzo[d]thiazol-2-yl)amino)methyl) phosphonate, reference compound] | 96.6 ± 1.35 | 
COC(=O)c1cc(C(Nc2nc3ccc(OC)cc3s2)P(=O)(OC)OC)ccc1O (stereo not shown) [Compound 36, Methyl 5-((dimethoxyphosphoryl)((6-methoxybenzo[d]thiazol-2-yl)amino)methyl)-2-hydroxybenzoate, reference compound] | 95.9 ± 2.09 | 
COc1ccc2nc(NC(c3ccc(O)c(Cl)c3)P(=O)(OC)OC)sc2c1 (stereo not shown) [Compound 37, Dimethyl ((3-chloro-4-hydroxyphenyl)((6-methoxybenzo[d]thiazol-2-yl)amino)methyl) phosphonate] | 97.83 ± 0.88 | 198 to 199 °C
